From PubChem BioAssay (NCI) come the findings set out here.

Holding throughout (experiment): NCI tumour cell line growth inhibition, 48 h
The subject of experiment [1] is A498 renal.
The test system of experiment [2] is M14 melanoma.
The test system of experiment [3] is MOLT-4 leukemia.
In experiment [4] the test system is NCI-H226 lung.
Experiment [5] deals with NCI-H23 lung.
Experiment [6] deals with OVCAR-3 ovarian.
Experiment [7] relates to OVCAR-4 ovarian.
Experiment [8] relates to PC-3 prostate.
For experiment [9], the system named is RPMI-8226 leukemia.
Experiment [10] deals with SK-MEL-28 melanoma.
In experiment [11] the test system is SNB-19 CNS.
The test system of experiment [12] is SR leukemia.
The subject of experiment [13] is UO-31 renal.

The structures appear in SMILES notation.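 All cell lines were grown in 96-well plates and treated with compound for 48 hours. Definition used: TGI = concentration required for complete inhibition of growth.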

For `NC1CC(=O)c2csc(Br)c21` (centres undefined), the TGI in experiment [1] is above 57.9 µM; in [2], above 53.6 µM; in experiment [3], 46.8 µM; in experiment [4] it was 69.2 µM; in experiment [5], 30.8 µM; in [6], 30.7 µM. Besides, the TGI is 30.5 µM in [7]; 28.4 µM in [8]; 34.2 µM in [9]; 37.9 µM in experiment [10]; above 80.3 µM in [11]; 47.5 µM in experiment [12]. This molecule registered a TGI in [13] of 30.7 µM.

As to `CC(=O)Oc1ccc2c(c1)c1c(=O)oc(N(C)C)nc1n2Cc1ccccc1`, the TGI in experiment [1] is above 83 µM; in [2] it was above 100 µM; in experiment [3], above 100 µM; in experiment [4], above 100 µM; in experiment [5], above 100 µM; in [6], above 100 µM. For the same molecule, the TGI in [7], in [8], in experiment [9], in [10], in experiment [11] and in experiment [12] was above 100 µM throughout. Moreover, the TGI in experiment [13] was above 81.8 µM.

As to `COc1ccc2c3c1OC1C(=O)C=CC4(O)C(C2)NCC[C@@]314` (some centres undefined), the TGI was 9.39 µM in experiment [1]; 6.61 µM in experiment [2]; 9.13 µM in experiment [3]; 25.7 µM in experiment [4]; 5.64 µM in experiment [5]; 3.99 µM in [6]. The TGI in experiment [7] worked out at 12.9 µM; in experiment [8] it was 12.2 µM; in [9] it was 13.2 µM; in experiment [10] it was 22.7 µM; in [11] it was 19.1 µM; in [12], 35.8 µM. The molecule also registered a TGI in [13] of 8.53 µM.

On to `CCP(=O)(CC)C(Cl)(Cl)C(O)C(C)(C)C` (centres undefined), for which the TGI in [1], in experiment [2], in experiment [3], in experiment [4], in experiment [5] and in [6] was above 100 µM each time. Moreover, the TGI in [7], in [8], in experiment [9], in [10], in [11] and in experiment [12] was above 100 µM each time. In addition, the TGI in experiment [13] is above 100 µM.

As for `O=C1C2C=CC1C1C(=O)OC(=O)C21` (centres undefined), the TGI in experiment [1], in experiment [2], in experiment [3], in [4], in experiment [5] and in [6] was above 100 µM each time. The TGI in experiment [7], in experiment [8], in experiment [9], in experiment [10], in [11] and in experiment [12] was above 100 µM in each case. Moreover, the TGI in [13] is above 100 µM.

For `COC(=O)C(CCC1C=CCC1)N=Cc1ccccc1` (centres undefined), the TGI in experiment [1], in [2], in experiment [3], in experiment [4], in experiment [5] and in experiment [6] was above 100 µM each time. For the same molecule, the TGI in experiment [7] is above 100 µM; in experiment [8] it was above 100 µM; in experiment [9], 84.7 µM; in [10], above 100 µM; in [11], above 100 µM; in [12] it was above 100 µM. The molecule also had a TGI in experiment [13] above 100 µM.

Consider `O=C1OC(c2ccc(O)c(Cl)c2)(c2ccc(O)c(Cl)c2)c2ccc(Br)c3cccc1c23` (tested in a mixture with another compound), for which the TGI worked out at 31.7 µM in [1]; 49.6 µM in experiment [2]; 41.8 µM in [3]; 41.1 µM in [4]; 34.8 µM in experiment [5]; 21.8 µM in experiment [6]. Moreover, the TGI in experiment [7] stood at 11.6 µM; in experiment [8] it was 28.8 µM; in experiment [9] it was 44.5 µM; in [10], 36 µM; in [11], 44.4 µM; in experiment [12], 45.4 µM. The molecule further registered a TGI in experiment [13] of 33.4 µM.

For `CN1CCC2(CC1)C(=O)N(N1CCCCCC1)C(=O)N2c1ccccc1`, the TGI in [1], in experiment [2], in experiment [3], in [4], in experiment [5] and in experiment [6] was above 100 µM each time. Further, the TGI in [7], in experiment [8], in experiment [9], in [10], in [11] and in experiment [12] was above 100 µM in each case. Further, the TGI in experiment [13] was above 100 µM.

In the case of `COc1cc(OC)c2c(c1OC)OCC(Cc1ccc(O)cc1)C2=O` (centres undefined), the TGI in experiment [1], in experiment [2], in [3], in experiment [4], in experiment [5] and in experiment [6] was above 25 µM each time. Also, the TGI in experiment [7], in experiment [8], in [9], in experiment [10], in experiment [11] and in experiment [12] was above 25 µM throughout. Besides, in experiment [13], the TGI was above 25 µM.

With `CCCN1C(=O)CCC2=C1CCc1c2ccc(Cl)c1Cl`, the TGI was 33.2 µM in experiment [1]; above 100 µM in [2]; above 100 µM in experiment [3]; above 100 µM in experiment [4]; above 100 µM in experiment [5]; 86.7 µM in experiment [6]. In addition, the TGI in experiment [7], in experiment [8], in experiment [9], in [10], in experiment [11] and in experiment [12] was above 100 µM throughout. Further, the TGI in experiment [13] is above 100 µM.

Turning to `NC1C/C(=N\O)c2c(I)sc(I)c21` (centres undefined), the TGI was above 58 µM in experiment [1]; 30.9 µM in experiment [2]; above 100 µM in experiment [3]; 34.1 µM in experiment [4]; 30.2 µM in experiment [5]; 30.2 µM in experiment [6]. Further, the TGI in experiment [7] is above 64.9 µM; in [8], 31.6 µM; in experiment [9], above 42 µM; in [10], 32.5 µM; in experiment [11], 39.3 µM; in experiment [12] it was above 100 µM. Besides, the TGI in experiment [13] is 30.1 µM.

Regarding `O=C(CN1CCN(C(=O)OCc2ccccc2)CCN(CC(=O)N2CCCCC2)CCN(C(=O)OCc2ccccc2)CC1)N1CCCCC1`, the TGI in [1] is 47.1 µM; in experiment [2], 25 µM; in [3], above 46 µM; in experiment [4] it was 36.6 µM; in experiment [5] it was above 100 µM; in experiment [6] it was 22.8 µM. In addition, the TGI in experiment [7] is 25.4 µM; in experiment [8], 37.3 µM; in experiment [9] it was 37.3 µM; in [10] it was 27.9 µM; in [11], above 52.5 µM; in experiment [12], 11.8 µM. Also, the TGI in experiment [13] worked out at 30.6 µM.

`COC(=O)CC1(CNC(=O)OCc2ccccc2)OCCO1`: the TGI in experiment [1], in experiment [2], in experiment [3], in [4], in experiment [5] and in experiment [6] was above 100 µM in each case. The TGI in experiment [7], in experiment [8], in experiment [9], in experiment [10], in experiment [11] and in [12] was above 100 µM throughout. Moreover, in [13], the TGI was above 100 µM.
